# Measurements reported in ChEMBL document CHEMBL1944611, “Genistein binding mode to doubly nicked dumbbell DNA. Dynamic and diffusion ordered NMR study” (J Med Chem, 2011).
# What was measured:
# Type in all cases: nucleic-acid assay
# [1] = test system: Nucleic Acid; assay: Binding affinity to Doubly nicked dumbbell DNA 5'-TCGAACGC/iSp18/GCTG/3Phos/-3' at 1.9 mM DNA concentration and pH 6
# [2] = test system: Nucleic Acid; assay: Binding affinity to Doubly nicked dumbbell DNA 5'-TCGAACGC/iSp18/GCTG/3Phos/-3' at 1 mM compound concentration and pH 6
# [3] = test system: Nucleic Acid; assay: Binding affinity to Doubly nicked dumbbell DNA 5'-TCGAACGC/iSp18/GCTG/3Phos/-3' at 1.4 mM compound concentration and pH 9.2
# [4] = test system: Nucleic Acid; assay: Binding affinity to Doubly nicked dumbbell DNA 5'-TCGAACGC/iSp18/GCTG/3Phos/-3' at 1 mM compound concentration and pH 8.6
# [5] = test system: Nucleic Acid; assay: Binding affinity to Doubly nicked dumbbell DNA 5'-TCGAACGC/iSp18/GCTG/3Phos/-3' at 1.4 mM compound concentration and pH 8.4
# [6] = test system: Nucleic Acid; assay: Binding affinity to Doubly nicked dumbbell DNA 5'-TCGAACGC/iSp18/GCTG/3Phos/-3' at 1 mM DNA concentration and pH 8.6
# [7] = test system: Nucleic Acid; assay: Binding affinity to Doubly nicked dumbbell DNA 5'-TCGAACGC/iSp18/GCTG/3Phos/-3' at 1 mM DNA concentration and pH 9.2
# [8] = test system: Nucleic Acid; assay: Binding affinity to Doubly nicked dumbbell DNA 5'-TCGAACGC/iSp18/GCTG/3Phos/-3' at 1 mM DNA concentration and pH 8.4
Ka [1],Ka [2],Ka [3],Ka [4],Ka [5],Ka [6],Ka [7],Ka [8],Structure (SMILES)
0.71 mM⁻¹,0.5 mM⁻¹,–,–,–,–,–,–,CN(C)Cc1c(O)c(CN(C)C)c2occ(-c3ccc(O)cc3)c(=O)c2c1O
–,–,0.17 mM⁻¹,0.38 mM⁻¹,0.23 mM⁻¹,0.77 mM⁻¹,0.31 mM⁻¹,0.57 mM⁻¹,O=c1c(-c2ccc(O)cc2)coc2cc(O)cc(O)c12
